Test results from patent publication US5130303A, “Drug effect-enhancing agent for antitumor drug” (Nissan Chemical Industries Ltd., priority 1988, dated 1992).
Values after ≈ are worked out from the molar mass of the structure shown.

How the values were obtained:
KB-C2 = test: in vitro chemosensitivity test, MTT colorimetric assay with vincristine (Test Example 1, Table 1); assay type: cell-based; conditions: Homo sapiens, KB-C2, 96 h, read-out: IC50 of vincristine without a sample
Description: MTT colorimetric assay performed in a 96-well plate was used for an in vitro chemosensitivity test. The assay is dependent on the reduction of MTT by the mitochondrial dehydrogenase of viable cells to a blue formazan product which can be measured spectrophotometrically. Equal numbers of cells (2,000 for KB-3-1 and 5,000 for KB-C2) were inoculated into each well with […] of culture medium. After overnight incubation (37° C., 5% CO2), 20 μl of vincristine solution and 0.5 μl of sample solution were added and incubated for 4 days. Then, 50 μl of MTT (1.1 mg/ml PBS) was added to each well and incubated for further 4 hours. The resulting formazan was dissolved with 100 μl of DMSO after aspiration of the culture medium. Plates were placed on a plate shaker for 5 minutes and read immediately at 570 nm. IC50 (mg/ml) with a tested sample 10 μM is given in Table 1; and IC50 of vincristine without a sample was 5,000 ng/ml.
MTT: 3-(4,5-dimethylthiazol-2-yl)-2,5-diphenyltetrazolium bromide
MEM: minimum essential medium

cancer cells = conditions: literature; cited from earlier work

Structure (SMILES)	IC50 (KB-C2) [µg/mL]	effect on multidrug resistance / antitumor drug effects (cancer cells)
CC[C@]1(O)C[C@H]2CN(CCc3c([nH]c4ccccc34)[C@@](C(=O)OC)(c3cc4c(cc3OC)N(C=O)[C@H]3[C@@](O)(C(=O)OC)[C@H](OC(C)=O)[C@]5(CC)C=CCN6CC[C@]43[C@@H]65)C2)C1 [vincristine]	5 (≈ 6.06 µM)	–
COc1ccc(CCN(C)CCCC(C#N)(c2ccc(OC)c(OC)c2)C(C)C)cc1OC (stereo not shown) [Verapamil]	–	overcomes the multidrug resistance against antitumor drugs
COC(=O)C1=C(C)NC(C)=C(C(=O)OCCN(C)Cc2ccccc2)C1c1cccc([N+](=O)[O-])c1 (stereo not shown) [nicardipin]	–	enhances the antitumor activities of vindecine sulfate
COc1ccc([C@@H]2Sc3ccccc3N(CCN(C)C)C(=O)[C@@H]2OC(C)=O)cc1 [diltiazem]	–	enhances the drug effects of vincristine (VCR)
